Experimental data taken from patent US12522575B2, “2-diarylmethyl-4-aminotetrahydropyran derivatives and related compounds as anticancer, antiinflammatory, antifibrotic and neuroprotective agents” (Atux Iskay LLC, priority 2021, dated 2026).
pIC50: −log10 of the molar value.

Tests used:
Type in all cases: cell-based
[1] = tested on: phosphatase activity in ApoE transfected A172 glioblastoma cells; assay: Cellular in vitro phosphatase activation assay (Malachite Green) in ApoE transfected A172 cells; conditions: 24 hours
Description: Cellular in vitro phosphatase activation assay was performed using the method of Theendakara et al, Molecular and Cellular Neuroscience, 83 (2017), pages 83-91 which is described below:
(§1) A172 glioblastoma cells were cultured in Dulbecco's modified Eagle's medium (DMEM) supplemented with 10% fetal bovine serum and 1% Penicillin-streptomycin. Incubation was performed at 37° C. and 5% CO2.
A172 cells were seeded at 5×10^5 cells/2.5 ml growth medium (without antibiotics) per well on 6-well tissue culture plates. Cells were incubated overnight to allow them to recover and reattach. […]
After 24 hrs, cells were washed twice with imidazole buffer and lysed using NP-40 Lysis buffer. […] The amount of phosphate release in the assay was determined by measuring absorbance at 620 nm using the Spectramax i3x plate reader.
The absorbance intensity data were analyzed using the computer software Graphpad Prism. The phosphate concentration for each sample was determined from the standard curve using phosphate standard concentrations. In order to compare samples, the first set (column A) were there was no transfection performed and no compound added, was designated a baseline; the absorbance measurement in this column was set as 100% phosphatase activity.

[2] = tested on: lung fibroblasts from healthy subjects; assay: Fibrosis associated gene expression in lung fibroblasts; conditions: 1 μM, 24 hours, TGF-β (FIG. 1)
Description: Each dot represents cells from a different subject. Student t-tests or 2-way ANOVA were performed and a p-value […] was denoted as * when comparing to the vehicle treated groups or ** when comparing to the TGF-β vehicle groups.
Compounds of the present invention activate PP2A responses in fibroblasts from healthy subjects. Lung fibroblasts from 6 subjects were stimulated with 1 micromolar of example compounds for 24 hours.

[3] = tested on: A172 glioblastoma cells; assay: A172 cell viability / proliferation (CellTiter-Glo); conditions: Homo sapiens, A 172, 48-72 hours treatment, read-out: IC50 for A172 cell growth
Description: as §1
A172 cells were seeded at 3000-3500 cells/90 μL growth medium per well on 96-well tissue culture plates. Cells were incubated overnight to allow them to recover and reattach. Next day cells were treated with tested compounds and incubated for 48-72 hours.
Cell Proliferation assays in triplicate were performed at each concentration. Compounds test range was 1-30 µM (0, 5, 10, 15, 20, 25, and 30). The compounds were dissolved in DMSO. […]
After treatment, cells were allowed to equilibrate at room temperature for 1/2 to one hour. Cell proliferation was measured by Luminescence quantification using Promega CellTiter-Glo Luminescent Cell Viability Assay. […] Luminescence intensity was measured using the Spectramax i3× plate reader.
The Luminescence intensity data were analyzed using the computer software Graphpad Prism. In the absence of the compound, the luminescence intensity (Lt) in each data set was defined as 100% cell viability. The percent cell in the presence of each compound was calculated according to the following equation: % Cell=L/Lt, were L=the luminescence intensity in the presence of the compound. […]

`O=S(=O)(NC1CCOC(C2c3ccc(F)cc3CCc3cc(F)ccc32)C1)c1ccc(OC(F)(F)F)cc1` (stereo not drawn) [Example 6, N-(2-(2,8-difluoro-10,11-dihydro-5H-dibenzo[a,d][7]annulen-5-yl)tetrahydro-2H-pyran-4-yl)-4-(trifluoromethoxy)benzenesulfonamide] was tested. Which “% increase from ApoE transfected cell at 5 μM test compound concentration” value [1] did it give?
Its value is 6.8%.

What about the pro-fibrotic gene expression [2] of the same compound?
Its pro-fibrotic gene expression is “suppression of pro-fibrotic gene expression”.

What about the pIC50 [3] of the same compound?
Its pIC50 is 5.00.
